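Results reflect a 48-hour exposure of cells in 96-well plates to compound at five concentrations. The concentration for 50% growth inhibition is given as GI50. The concentration for full growth arrest is given as TGI.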
Legend:
Assay in all cases: NCI-60 cell line screen, 48 h
K-562 leukemia = tested on: K-562 leukemia
OVCAR-3 ovarian = tested on: OVCAR-3 ovarian
IGROV1 ovarian = tested on: IGROV1 ovarian
786-0 renal = tested on: 786-0 renal
MOLT-4 leukemia = tested on: MOLT-4 leukemia
MDA-MB-435 = tested on: MDA-MB-435
SK-MEL-5 melanoma = tested on: SK-MEL-5 melanoma
PC-3 prostate = tested on: PC-3 prostate
HOP-92 NSCLC = tested on: HOP-92 NSCLC
OVCAR-5 ovarian = tested on: OVCAR-5 ovarian

Row | Structure (SMILES) | GI50 (K-562 leukemia) | TGI (K-562 leukemia) | GI50 (OVCAR-3 ovarian) | TGI (OVCAR-3 ovarian) | GI50 (IGROV1 ovarian) | TGI (IGROV1 ovarian) | GI50 (786-0 renal) | TGI (786-0 renal) | GI50 (MOLT-4 leukemia) | TGI (MOLT-4 leukemia) | GI50 (MDA-MB-435) | TGI (MDA-MB-435) | GI50 (SK-MEL-5 melanoma) | TGI (SK-MEL-5 melanoma) | GI50 (PC-3 prostate) | TGI (PC-3 prostate) | GI50 (HOP-92 NSCLC) | TGI (HOP-92 NSCLC) | GI50 (OVCAR-5 ovarian) | TGI (OVCAR-5 ovarian)
1 | CCCC(=O)Oc1ccc(/C(=C(\C)c2ccc(Cl)cc2)c2ccc(OCCN(CC)CC)cc2)cc1 | 2.08 µM | 5.09 µM | 6.98 µM | 21.4 µM | 6.99 µM | 21.6 µM | 1.74 µM | 3.5 µM | 3.09 µM | 10.5 µM | 1.78 µM | 3.68 µM | 1.75 µM | 3.21 µM | 0.56 µM | 14.1 µM | 7.76 µM | 23.4 µM | 4.84 µM | 19.7 µM
2 | CN(C)S(=O)(=O)c1cccc(C(=O)Nc2nc(-c3ccc(F)c(F)c3)cs2)c1 | 5.1 µM | > 100 µM | 18.4 µM | > 95.4 µM | 28 µM | > 96.4 µM | 18.8 µM | 90.4 µM | 3.52 µM | > 55.2 µM | 5.41 µM | > 100 µM | 3.81 µM | > 25.2 µM | 5.96 µM | > 100 µM | 9.41 µM | > 74.3 µM | 98.4 µM | > 100 µM
3 | COc1ccc([N+](=O)[O-])c2c(NCCCN(C)C)c(C)c(C)nc12 |  | > 100 µM |  | > 100 µM |  | > 100 µM |  | > 100 µM |  | > 100 µM |  | > 100 µM |  | > 100 µM |  | > 100 µM |  | > 100 µM |  | > 100 µM
4 | O=S(=O)(F)Cc1ccccc1 |  | > 100 µM |  | > 100 µM |  | > 100 µM |  | > 100 µM |  | > 100 µM |  | > 100 µM |  | > 100 µM |  | > 100 µM |  | > 100 µM |  | > 100 µM
5 | O=C1c2ccccc2C(=O)N1c1ccc(Cc2ccc(N3C(=O)c4ccccc4C3=O)cc2)cc1 |  | > 100 µM |  | > 100 µM |  | > 100 µM |  | > 100 µM |  | > 100 µM |  | > 100 µM |  | > 100 µM |  | > 100 µM |  | > 100 µM |  | > 100 µM
6 | N#CC1=C(N)NC(=O)C(C#N)C12Nc1ccccc1S2 (stereo not given) | 48.8 µM | > 100 µM | 32.6 µM | > 100 µM | 18 µM | 88.4 µM | > 100 µM | > 100 µM | 95.8 µM | > 100 µM | > 100 µM | > 100 µM | > 100 µM | > 100 µM | 60.4 µM | > 100 µM | 74 µM | > 100 µM | > 100 µM | > 100 µM
7 | CCN(Cc1cc(Cl)cc(C)c1O)Cc1c(O)ccc2ccccc12 |  | 65.4 µM |  | 29 µM |  | 31.1 µM |  | 34 µM |  | 28 µM |  | 29.9 µM |  | 29.4 µM |  | 29.9 µM |  | 26.2 µM |  | 35.2 µM
8 | C=C1C(=O)OC2CC1C(OC(=O)/C=C/c1ccccc1)C/C(C)=C/CC/C(C)=C/CCC2(C)O (stereo not given) |  | > 100 µM |  | 2.87 µM |  | 3.07 µM |  | 2.31 µM |  | > 39.8 µM |  | 3.76 µM |  | 3.68 µM |  | 3.22 µM |  | 4.03 µM |  | 3.19 µM
9 | Nc1c(C(=O)c2cccc(-c3cccnc3)c2)cnn1-c1ccc(F)cc1 | > 25 µM | > 25 µM | > 25 µM | > 25 µM | > 25 µM | > 25 µM | > 25 µM | > 25 µM | > 25 µM | > 25 µM | > 25 µM | > 25 µM | > 25 µM | > 25 µM | > 25 µM | > 25 µM | > 8.11 µM | > 25 µM | > 25 µM | > 25 µM
10 | O=C(O)CCC(O)=C1S(=O)(=O)OCCOS1(=O)=O |  | > 100 µM |  | > 100 µM |  | > 100 µM |  | > 100 µM |  | > 100 µM |  | > 100 µM |  | > 100 µM |  | > 100 µM |  | > 100 µM |  | > 100 µM
11 | COc1ccc(CCN2CCCn3c2nc2ccccc2c3=O)cc1 | < 0.0205 µM | > 100 µM | 0.0328 µM | 0.136 µM | 0.109 µM | > 100 µM | 0.299 µM | > 100 µM | 0.0779 µM | > 100 µM | 0.022 µM | 0.061 µM | 0.0433 µM | 4.44 µM | 0.127 µM | > 100 µM | 3.33 µM | > 95.6 µM | 0.95 µM | > 100 µM

Source: PubChem BioAssay (NCI)
